Measurements as given in patent publication US20060018970A1, “Enoximone formulations and their use in the treatment of cardiac hypertrophy and heart failure” (Myogen, Inc., priority 2003, published 2006).
Read-outs that look alike come from different tables or passages of the source.

Key:
[1] = Solubility in the physiological pH range; assay type: physicochemical; conditions: data unpublished
[2] = test system: patients with the most advanced stage of chronic heart failure dependent on intravenous inotrope therapy; conditions: cited from earlier work
[3] = test system: type-III phosphodiesterase (PDE-III); conditions: cited from earlier work
clinical [4] = conditions: human, in vivo, plasma concentration
clinical [5] = conditions: human, plasma

SMILES: CSc1ccc(C(=O)c2[nH]c(=O)[nH]c2C)cc1 [enoximone, 1,3-Dihydro-4-methyl-5-[4-(methylthio)benzoyl]-2H-imidazol-2-one]
- solubility [1]: Limited solubility
- plasma concentration (Patient 1, dose 50 mg, PREDOSE): 69.7 ng/mL
- plasma concentration (Patient 4, dose 25 mg, HR ALIQUOT 1 (between 0.5 HR and 2 HR)): 65.8 ng/mL
- time to death or re-initiation of i.v. inotrope therapy ([2]; 60-day (p=0.012), 75-day (p=0.016) and 90-day (p=0.041) periods): benefit in favor of enoximone versus placebo
- time to death or re-initiation of i.v. inotrope therapy ([2]; 182-day period (p=0.188)): not
- mean total days on i.v. inotrope therapy over the course of the study ([2]; placebo 49 days, p=0.049): 28 days
- inhibition of type-III phosphodiesterase [3]: highly selective inhibition
- concentration at 0 h (clinical [4]; Max): 150 ng/mL
- concentration at 2 h (clinical [4]; Max): 400 ng/mL
- concentration at 4 h (clinical [4]; Max): 200 ng/mL
- concentration at 8 h (clinical [4]; Max): 150 ng/mL
- concentration at 0 h (clinical [4]; Min): 0 ng/mL
- concentration at 2 h (clinical [4]; Min): 20 ng/mL
- concentration at 4 h (clinical [4]; Min): 15 ng/mL
- concentration at 8 h (clinical [4]; Min): 0 ng/mL
- concentration at 0.5 h (clinical [5]; 25 mg, Patient 4, dose 25 mg): 23.7 ng/mL
- concentration at 2 h (clinical [5]; 25 mg, Patient 4, dose 25 mg, 2 HR): 63.6 ng/mL
- concentration at 0 h (clinical [5]; 25 mg, Patient 4, dose 25 mg, PREDOSE): 18.6 ng/mL
- concentration at 2 h (clinical [5]; 50 mg, Max, 2 hrs, after dosing of enoximone, 5 patients, raw data): 383 ng/mL
- concentration at 0.5 h (clinical [5]; 50 mg, Patient 1, dose 50 mg): 118 ng/mL
- concentration at 1 h (clinical [5]; 50 mg, Patient 1, dose 50 mg): 424 ng/mL
- concentration at 2 h (clinical [5]; 50 mg, Patient 1, dose 50 mg, 2 HR): 383 ng/mL
- concentration at 4 h (clinical [5]; 50 mg, Patient 1, dose 50 mg, 4 HR): 209 ng/mL
- concentration at 6 h (clinical [5]; 50 mg, Patient 1, dose 50 mg): 112 ng/mL
- concentration at 0.5 h (clinical [5]; 50 mg, Patient 2, dose 50 mg): 52.8 ng/mL
- concentration at 1 h (clinical [5]; 50 mg, Patient 2, dose 50 mg): 49.8 ng/mL
- concentration at 2 h (clinical [5]; 50 mg, Patient 2, dose 50 mg, 2 HR): 127 ng/mL
- concentration at 4 h (clinical [5]; 50 mg, Patient 2, dose 50 mg, 4 HR): 237 ng/mL
- concentration at 6 h (clinical [5]; 50 mg, Patient 2, dose 50 mg): 122 ng/mL
- concentration at 0 h (clinical [5]; 50 mg, Patient 2, dose 50 mg, PREDOSE): 66.7 ng/mL
- concentration at 0.5 h (clinical [5]; 50 mg, Patient 3, dose 50 mg): 92.4 ng/mL
- concentration at 1 h (clinical [5]; 50 mg, Patient 3, dose 50 mg): 118 ng/mL
- concentration at 2 h (clinical [5]; 50 mg, Patient 3, dose 50 mg, 2 HR): 110 ng/mL
- concentration at 4 h (clinical [5]; 50 mg, Patient 3, dose 50 mg, 4 HR): 78.2 ng/mL
- concentration at 6 h (clinical [5]; 50 mg, Patient 3, dose 50 mg): 71.7 ng/mL
- concentration at 0 h (clinical [5]; 50 mg, Patient 3, dose 50 mg, PREDOSE): 34.4 ng/mL
- concentration at 0.5 h (clinical [5]; 50 mg, Patient 5, dose 50 mg): 137 ng/mL
- concentration at 1 h (clinical [5]; 50 mg, Patient 5, dose 50 mg): 355 ng/mL
- concentration at 2 h (clinical [5]; 50 mg, Patient 5, dose 50 mg, 2 HR): 369 ng/mL
- concentration at 4 h (clinical [5]; 50 mg, Patient 5, dose 50 mg, 4 HR): 268 ng/mL
- concentration at 6 h (clinical [5]; 50 mg, Patient 5, dose 50 mg): 166 ng/mL
- concentration at 0 h (clinical [5]; 50 mg, Patient 5, dose 50 mg, PREDOSE): 149 ng/mL
- concentration at 0 h (clinical [5]; Max, 0 hr, after dosing of enoximone, 5 patients, raw data): 149 ng/mL
- concentration at 4 h (clinical [5]; Max, 4 hrs, after dosing of enoximone, 5 patients, raw data): 268 ng/mL
- concentration at 8 h (clinical [5]; Max, after dosing of enoximone, 5 patients, raw data): 166 ng/mL
- concentration at 0 h (clinical [5]; Min, 0 hr, after dosing of enoximone, 5 patients, raw data): 7.95 ng/mL
- concentration at 2 h (clinical [5]; Min, 2 hrs, after dosing of enoximone, 5 patients, raw data): 63.6 ng/mL
- concentration at 4 h (clinical [5]; Min, 4 hrs, after dosing of enoximone, 5 patients, raw data): 44 ng/mL
- concentration at 8 h (clinical [5]; Min, after dosing of enoximone, 5 patients, raw data): 20.7 ng/mL
